Results: ChEMBL document CHEMBL4000172, “Identification of a novel 5-amino-3-(5-cyclopropylisoxazol-3-yl)-1-isopropyl-1H-pyrazole-4-carboxamide as a specific RET kinase inhibitor” (Eur J Med Chem, 2017)
Each block holds one compound with its values, some of them ahead of it.

Tests used:
[1] = molecular target: Proto-oncogene tyrosine-protein kinase receptor Ret (Homo sapiens, UniProt P07949, V804M); assay: Inhibition of human RET V804M mutant using peptide substrate KKKVSRSGLYRSPS MPENLNRPR in presence of [gamma33P]ATP by radiometric assay
[2] = system: Proto-oncogene tyrosine-protein kinase receptor Ret (Homo sapiens), P07949 [C634W]
Description: Inhibition of RET C634W mutant in human TT cells assessed as reduction in cell viability by CellTiter-Glo luminescence assay

[3] = Stability in mouse liver microsomes assessed as compound remaining at 1 uM after 15 mins; format: ADME, microsome; conditions: read-out: Stability
[4] = Cytotoxicity against mouse BA/F3 cells assessed as reduction in cell viability by CellTiter-Glo luminescence assay; format: cell-based, BaF3
[5] = molecular target: T1, Proto-oncogene tyrosine-protein kinase receptor Ret (Homo sapiens, UniProt P07949); assay: Inhibition of human RET using KKKSPGEYVNIEFG as peptide substrate in presence of [gamma33P]ATP by radiometric assay
[6] = molecular target: T1, Proto-oncogene tyrosine-protein kinase receptor Ret
Description: Inhibition of RET (unknown origin) transfected in mouse Ba/F3 cells assessed as reduction in cell viability by CellTiter-Glo luminescence assay

[7] = system: Proto-oncogene tyrosine-protein kinase receptor Ret (Homo sapiens), P07949 [V804M]
Description: Inhibition of RET V804M mutant (unknown origin) transfected in mouse Ba/F3 cells assessed as reduction in cell viability by CellTiter-Glo luminescence assay

[8] = Cytotoxicity against human Nthy-ori 3-1 cells assessed as reduction in cell viability by CellTiter-Glo luminescence assay; format: cell-based
[9] = Stability in rat liver microsomes assessed as compound remaining at 1 uM after 30 mins; format: ADME, microsome; conditions: read-out: Stability
[10] = Stability in human liver microsomes assessed as compound remaining at 1 uM after 15 mins; format: ADME, microsome; conditions: read-out: Stability
[11] = Stability in rat liver microsomes assessed as compound remaining at 1 uM after 15 mins; format: ADME, microsome; conditions: read-out: Stability
[12] = Stability in human liver microsomes assessed as compound remaining at 1 uM after 30 mins; format: ADME, microsome; conditions: read-out: Stability
[13] = Induction of apoptosis in human Nthy-ori 3-1 cells assessed as increase in cleaved PARP level at 5 to 20 uM after 48 hrs by Western blot method; format: cell-based; conditions: nthy-ori 3-1, 48 h
[14] = Induction of apoptosis in human Nthy-ori 3-1 cells assessed as increase in cleaved PARP level at 5 uM after 48 hrs by Western blot method; format: cell-based; conditions: nthy-ori 3-1, 48 h

T1 sequence (P07949 whole entry): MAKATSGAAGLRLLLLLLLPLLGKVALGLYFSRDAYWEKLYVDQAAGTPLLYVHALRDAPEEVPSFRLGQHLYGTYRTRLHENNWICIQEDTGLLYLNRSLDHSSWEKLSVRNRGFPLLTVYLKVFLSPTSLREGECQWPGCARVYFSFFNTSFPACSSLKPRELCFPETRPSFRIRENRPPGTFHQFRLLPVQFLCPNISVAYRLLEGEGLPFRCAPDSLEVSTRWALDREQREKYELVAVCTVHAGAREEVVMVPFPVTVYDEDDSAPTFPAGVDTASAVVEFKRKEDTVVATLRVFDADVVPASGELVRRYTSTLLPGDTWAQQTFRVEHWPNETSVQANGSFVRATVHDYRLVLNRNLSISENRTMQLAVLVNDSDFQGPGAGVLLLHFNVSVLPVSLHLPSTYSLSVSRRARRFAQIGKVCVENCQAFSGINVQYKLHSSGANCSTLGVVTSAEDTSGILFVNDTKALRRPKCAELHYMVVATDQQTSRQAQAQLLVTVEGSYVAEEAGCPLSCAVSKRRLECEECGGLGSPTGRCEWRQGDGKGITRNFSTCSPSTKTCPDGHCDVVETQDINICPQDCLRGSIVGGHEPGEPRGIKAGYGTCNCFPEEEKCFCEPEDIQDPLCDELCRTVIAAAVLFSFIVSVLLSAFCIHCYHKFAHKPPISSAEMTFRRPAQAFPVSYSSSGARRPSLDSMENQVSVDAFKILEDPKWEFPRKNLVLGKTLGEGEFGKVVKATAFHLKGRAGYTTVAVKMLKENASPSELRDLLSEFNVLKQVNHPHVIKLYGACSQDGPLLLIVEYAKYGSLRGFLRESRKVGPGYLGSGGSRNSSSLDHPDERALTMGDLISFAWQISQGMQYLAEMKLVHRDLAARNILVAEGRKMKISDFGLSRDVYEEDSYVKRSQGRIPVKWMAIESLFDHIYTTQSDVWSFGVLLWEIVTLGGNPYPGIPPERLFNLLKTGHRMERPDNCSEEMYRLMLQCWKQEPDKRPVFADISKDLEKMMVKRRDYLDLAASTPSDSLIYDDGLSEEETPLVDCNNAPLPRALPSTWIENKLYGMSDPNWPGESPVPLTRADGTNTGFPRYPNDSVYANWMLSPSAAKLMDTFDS
Sequence of Proto-oncogene tyrosine-protein kinase receptor Ret (Homo sapiens), P07949 [C634W] (P07949 whole entry C634W): as the sequence (P07949 whole entry) above, with C634W counted along it
Sequence of Proto-oncogene tyrosine-protein kinase receptor Ret (Homo sapiens), P07949 [V804M] (P07949 whole entry V804M): as the sequence (P07949 whole entry) above, with V804M counted along it
Sequence of Proto-oncogene tyrosine-protein kinase receptor Ret (Homo sapiens, UniProt P07949, V804M) (P07949 29-1114 V804M limits assumed): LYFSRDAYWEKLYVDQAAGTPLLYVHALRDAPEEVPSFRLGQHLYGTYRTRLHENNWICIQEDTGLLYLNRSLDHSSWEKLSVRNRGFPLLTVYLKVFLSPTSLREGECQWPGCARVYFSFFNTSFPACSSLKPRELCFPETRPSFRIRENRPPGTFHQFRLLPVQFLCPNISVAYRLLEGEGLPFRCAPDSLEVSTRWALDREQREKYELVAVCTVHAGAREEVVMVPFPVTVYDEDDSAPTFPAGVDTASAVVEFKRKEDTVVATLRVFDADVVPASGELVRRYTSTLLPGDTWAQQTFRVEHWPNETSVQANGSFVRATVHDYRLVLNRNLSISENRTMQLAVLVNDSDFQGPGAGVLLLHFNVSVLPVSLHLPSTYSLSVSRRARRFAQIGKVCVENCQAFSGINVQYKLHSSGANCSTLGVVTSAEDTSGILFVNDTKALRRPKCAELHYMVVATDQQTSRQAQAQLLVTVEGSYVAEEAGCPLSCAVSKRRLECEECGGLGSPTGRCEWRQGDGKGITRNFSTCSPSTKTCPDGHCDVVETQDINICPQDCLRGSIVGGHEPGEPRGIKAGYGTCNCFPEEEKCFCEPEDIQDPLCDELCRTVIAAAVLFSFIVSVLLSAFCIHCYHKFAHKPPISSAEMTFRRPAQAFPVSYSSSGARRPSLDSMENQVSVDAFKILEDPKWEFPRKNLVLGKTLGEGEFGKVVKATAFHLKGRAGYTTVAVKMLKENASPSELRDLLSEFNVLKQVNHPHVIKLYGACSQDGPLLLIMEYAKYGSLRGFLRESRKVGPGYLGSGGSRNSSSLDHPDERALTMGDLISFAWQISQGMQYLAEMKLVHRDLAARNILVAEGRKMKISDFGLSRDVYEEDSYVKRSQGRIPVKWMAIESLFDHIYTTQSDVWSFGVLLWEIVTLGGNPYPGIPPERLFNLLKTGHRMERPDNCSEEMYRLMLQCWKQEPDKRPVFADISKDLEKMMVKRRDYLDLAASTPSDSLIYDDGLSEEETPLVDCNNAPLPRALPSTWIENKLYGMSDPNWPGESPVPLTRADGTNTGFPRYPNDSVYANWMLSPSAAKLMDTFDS

Compound: CC(C)c1cc(-c2nn(C(C)C)c3ncnc(N)c23)no1
remaining at 0.5 h, 1 µM [9]: 4.1%
remaining at 0.25 h, 1 µM [3]: 5.1%
remaining at 0.25 h, 1 µM [10]: 29%
remaining at 0.25 h, 1 µM [11]: 3.8%
remaining at 0.5 h, 1 µM [12]: 4.6%

Compound: CC(C)n1nc(-c2cc(-c3ccccn3)on2)c(C(N)=O)c1N
remaining at 0.25 h, 1 µM [3]: 49%
IC50 [5]: 4800 nM

Compound: CC(C)n1nc(-c2cc(C3CCCCC3)on2)c(C(N)=O)c1N
remaining at 0.25 h, 1 µM [3]: 40.6%
IC50 [5]: 2700 nM

Compound: COc1cc2nccc(Oc3ccc(NC(=O)C4(C(=O)Nc5ccc(F)cc5)CC4)cc3)c2cc1OC [CABOZANTINIB]
GI50 [2]: 260 nM
Activity [14]: Toxic
GI50 [4]: > 10000 nM
GI50 [6]: 70 nM
GI50 [7]: 740 nM
GI50 [8]: 2920 nM

Compound: Nc1ncnc2[nH]nc(-c3cc(C4CC4)on3)c12
remaining at 0.25 h, 1 µM [3]: 1.4%

Compound: CC(C)n1nc(-c2coc(C3CC3)n2)c2c(N)ncnc21
remaining at 0.25 h, 1 µM [3]: 2.8%
IC50 [5]: 139 nM

Compound: CC(C)n1nc(-c2ccon2)c2c(N)ncnc21
remaining at 0.25 h, 1 µM [3]: 2.6%

Compound: CC(C)n1nc(-c2cc(-c3ccc(F)cc3)on2)c(C(N)=O)c1N
remaining at 0.25 h, 1 µM [3]: 85.2%
IC50 [5]: 416 nM

Second part, led by results:

IC50 [1]: 2900 nM
GI50 [2]: > 10000 nM
remaining at 0.25 h, 1 µM [3]: 11.8%
IC50 [5]: 162 nM
GI50 [6]: > 10000 nM
GI50 [7]: > 10000 nM
Compound: CC(C)n1nc(-c2cc(-c3ccsc3)on2)c(C(N)=O)c1N
GI50 [4]: > 10000 nM
GI50 [8]: > 10000 nM

remaining at 0.5 h, 1 µM [9]: 69%
IC50 [1]: 252 nM
GI50 [2]: 1660 nM
remaining at 0.25 h, 1 µM [3]: 62.5%
remaining at 0.25 h, 1 µM [10]: 73%
IC50 [5]: 44 nM
GI50 [6]: 870 nM
remaining at 0.25 h, 1 µM [11]: 70%
remaining at 0.5 h, 1 µM [12]: 45.1%
GI50 [7]: 6980 nM
Compound: CC(C)n1nc(-c2cc(C3CC3)on2)c(C(N)=O)c1N
GI50 [4]: > 10000 nM
GI50 [8]: > 10000 nM
Activity [13]: Non-Toxic

remaining at 0.25 h, 1 µM [3]: 61.8%
IC50 [5]: 1660 nM
Compound: Cc1ccc(-c2cc(-c3nn(C(C)C)c(N)c3C(N)=O)no2)cc1

remaining at 0.25 h, 1 µM [3]: 60.8%
IC50 [5]: 236 nM
Compound: CC(C)n1nc(-c2cc(-c3ccccc3)on2)c(C(N)=O)c1N

remaining at 0.25 h, 1 µM [3]: 78%
IC50 [5]: 2220 nM
Compound: CC(C)n1nc(-c2cc(C(C)(C)C)on2)c(C(N)=O)c1N

remaining at 0.25 h, 1 µM [3]: 15.1%
IC50 [5]: 631 nM
Compound: CCc1cc(-c2nn(C(C)C)c(N)c2C(N)=O)no1

IC50 [1]: 1220 nM
GI50 [2]: > 10000 nM
remaining at 0.25 h, 1 µM [3]: 32.1%
IC50 [5]: 78 nM
GI50 [6]: > 10000 nM
GI50 [7]: > 10000 nM
Compound: CC(C)n1nc(-c2cc(-c3cccs3)on2)c(C(N)=O)c1N
GI50 [4]: > 10000 nM
GI50 [8]: > 10000 nM

remaining at 0.25 h, 1 µM [3]: 51.6%
IC50 [5]: 1260 nM
Compound: CC(C)c1cc(-c2nn(C(C)C)c(N)c2C(N)=O)no1

remaining at 0.25 h, 1 µM [3]: 86.7%
IC50 [5]: 3390 nM
Compound: CC(C)n1nc(-c2cc(-c3cccnc3)on2)c(C(N)=O)c1N

remaining at 0.25 h, 1 µM [3]: 54.6%
IC50 [5]: 1640 nM
Compound: CC(C)n1nc(-c2cc(Cc3ccccc3)on2)c(C(N)=O)c1N
